The values below come from US8809341B2, “2,4-pyrimidinediamine compounds and uses as anti-proliferative agents” (Rigel Pharmaceuticals, Inc., priority 2003, dated 2014).

One experiment deals with H1299 cells. As to the kind of experiment: in vitro antiproliferation assay, H1299 (lung). The format is cell-based. An outline of the steps:
(§1)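 IC50 values came from standard antiproliferation testing in cultured tumour cells; the A549 and H1299 lines are of lung origin.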

The next experiment deals with A549 cells. In words: in vitro antiproliferation assay, A549 (lung). The format is cell-based. The gist of the method:
as §1

The mark [1] stands for this setting: IC50 class against H1299 (lung) tumor cells.
The mark [2] stands for this setting: IC50 class against A549 (lung) tumor cells.
Where [3] appears, read: Table 7, in vitro antiproliferation, H1299 (lung) cells.
The mark [4] stands for this setting: Table 7, in vitro antiproliferation, A549 (lung) cells.
The mark [5] stands for this setting: H1299 (lung) cells, in vitro antiproliferation.
[6] abbreviates: A549 (lung) cells, in vitro antiproliferation.

pIC50: −log10 of the molar value. Bounds are passed on as bounds.

As for `CN1CCN(c2ccc(Nc3ncc(F)c(Nc4ccc5c(n4)NCCO5)n3)cc2Cl)CC1` [compound 615], the negative-log IC50 (pIC50) in the experiment with H1299 cells (setting [1]) and in the experiment on A549 cells (setting [2]) was at least 4.70 in each case.
Take `Cc1cc(Nc2ncc(F)c(Nc3ccc4c(n3)NCCO4)n2)ccc1N1CCN(C)CC1` [compound 616]: the negative logarithm of the IC50 (pIC50) in the experiment with H1299 cells (setting [1]) and in the experiment on A549 cells (setting [2]) was at least 4.70 in each case.
In the case of `CNC(=O)c1cc2cccc(Nc3ncc(F)c(Nc4ccc5c(c4)OC(F)(F)C(F)(F)O5)n3)c2[nH]1` [compound 653], the pIC50 in the experiment on H1299 cells (setting [3]) and with A549 cells (setting [4]) was at least 4.70 in each case.
`CNC(=O)c1cc2cccc(Nc3ncc(F)c(Nc4ccc5c(c4)OCO5)n3)c2[nH]1` [compound 655]: the pIC50 in the experiment on H1299 cells (setting [3]) and in the experiment on A549 cells (setting [4]) was at least 4.70 in each case.
`COC(=O)c1cc2cc(Nc3ncc(F)c(Nc4cc(OC)cc(OC)c4)n3)ccc2o1` [compound 656]: the pIC50 in the experiment on H1299 cells (setting [3]) and in the experiment on A549 cells (setting [4]) was under 4.70 each time.
As to `COc1cc(Nc2nc(Nc3ccc4oc(C(=O)O)cc4c3)ncc2F)cc(OC)c1` [compound 657], the negative-log IC50 (pIC50) in the experiment on H1299 cells (setting [3]) and in the experiment with A549 cells (setting [4]) was under 4.70 throughout.
`COc1cc(Nc2nc(Nc3ccc4[nH]c(C(C)=O)cc4c3)ncc2F)cc(OC)c1` [compound 658]: the negative logarithm of the IC50 (pIC50) in the experiment on H1299 cells (setting [3]) is at least 4.70; in the experiment with A549 cells (setting [4]) it was under 4.70.
The matching figures for `COC(=O)c1cc2cccc(Nc3ncc(F)c(N(C)c4ccc5c(c4)OCCO5)n3)c2o1` [compound 661]: under 4.70 and under 4.70.
With `COC(=O)c1cc2cc(Nc3ncc(F)c(N(C)c4cc(OC)cc(OC)c4)n3)ccc2o1` [compound 662], the negative-log IC50 (pIC50) with H1299 cells (setting [3]) is at least 4.70; with A549 cells (setting [4]), under 4.70.
As for `CNC(=O)c1cc2cccc(Nc3ncc(F)c(N(C)c4cc(OC)cc(OC)c4)n3)c2[nH]1` [compound 663], the pIC50 with H1299 cells (setting [3]) and with A549 cells (setting [4]) was at least 4.70 each time.
Regarding `CCOC(=O)c1cc2cccc(Nc3ncc(F)c(Nc4ccc(OC)c(OC)c4)n3)c2[nH]1` [compound 664], the negative-log IC50 (pIC50) in the experiment with H1299 cells (setting [3]) and in the experiment on A549 cells (setting [4]) was at least 4.70 in each case.
Take `CNC(=O)c1cc2cccc(Nc3ncc(F)c(Nc4ccc(OC)c(OC)c4)n3)c2[nH]1` [compound 665]: the pIC50 in the experiment on H1299 cells (setting [3]) and in the experiment with A549 cells (setting [4]) was at least 4.70 in each case.
For `CCOC(=O)c1cc2cccc(Nc3ncc(F)c(N(C)c4ccc(OC)c(OC)c4)n3)c2[nH]1` [compound 666], the negative logarithm of the IC50 (pIC50) with H1299 cells (setting [3]) and with A549 cells (setting [4]) was at least 4.70 each time.
For `CNC(=O)c1cc2cccc(Nc3ncc(F)c(Nc4cc(C)cc(C)c4)n3)c2[nH]1` [compound 668], the negative-log IC50 (pIC50) with H1299 cells (setting [3]) is at least 4.70; with A549 cells (setting [4]), under 4.70.
As for `CNC(=O)c1cc2cccc(Nc3ncc(F)c(Nc4cc(OC)cc(C(F)(F)F)c4)n3)c2[nH]1` [compound 669], the pIC50 in the experiment with H1299 cells (setting [3]) and in the experiment on A549 cells (setting [4]) was at least 4.70 throughout.
Consider `CNC(=O)c1cc2cccc(Nc3ncc(F)c(Nc4ccc5c(c4)OC(F)(F)O5)n3)c2[nH]1` [compound 670], for which the pIC50 in the experiment with H1299 cells (setting [3]) and with A549 cells (setting [4]) was under 4.70 in each case.
With `COC(=O)c1cc2cc(Nc3ncc(F)c(N(C)c4ccc(OC)c(Cl)c4)n3)ccc2o1` [compound 671], the pIC50 with H1299 cells (setting [3]) and in the experiment on A549 cells (setting [4]) was under 4.70 in each case.
For the compound `COC(=O)c1cc2cc(Nc3ncc(F)c(N(C)c4cc(C)c(Cl)c(C)c4)n3)ccc2o1` [compound 672], the pIC50 in the experiment with H1299 cells (setting [3]) and in the experiment with A549 cells (setting [4]) was under 4.70 each time.
Take `CCOC(=O)c1cc2cccc(Nc3ncc(F)c(NC4CCC4)n3)c2[nH]1` [compound 678]: the pIC50 with H1299 cells (setting [3]) and in the experiment on A549 cells (setting [4]) was under 4.70 each time.
Take `CNC(=O)COc1cccc(Nc2nc(Nc3ccc(OCCN(C)C)cc3)ncc2F)c1` [compound 694]: the negative-log IC50 (pIC50) in the experiment on H1299 cells (setting [5]) and in the experiment on A549 cells (setting [6]) was at least 4.70 in each case.
Consider `CNC(=O)COc1cccc(Nc2ncc(F)c(Nc3ccc(Cl)c(Cl)c3)n2)c1` [compound 697], for which the negative logarithm of the IC50 (pIC50) with H1299 cells (setting [5]) and with A549 cells (setting [6]) was at least 4.70 throughout.
On to `Fc1cnc(Nc2ccc(C(F)(F)F)cc2)nc1Nc1ccc(C(F)(F)F)cc1` [compound 701], for which the pIC50 in the experiment on H1299 cells (setting [5]) and in the experiment with A549 cells (setting [6]) was under 4.70 each time.
Turning to `COc1ccc(Nc2ncc(F)c(Nc3ccc(OC)cc3)n2)cc1` [compound 702], the pIC50 with H1299 cells (setting [5]) and in the experiment on A549 cells (setting [6]) was at least 4.70 each time.
Regarding `CCOc1ccc(Nc2ncc(F)c(Nc3ccc(OCC)cc3)n2)cc1` [compound 704], the pIC50 in the experiment with H1299 cells (setting [5]) and in the experiment with A549 cells (setting [6]) was at least 4.70 in each case.
As to `CCOc1ccc(Nc2ncc(F)c(Nc3ccc(OC)c(OC)c3)n2)cc1` [compound 713], the negative-log IC50 (pIC50) in the experiment on H1299 cells (setting [5]) and in the experiment on A549 cells (setting [6]) was at least 4.70 each time.
`CC(C)(C)c1ccc(Nc2ncc(F)c(Nc3ccc(C(C)(C)C)cc3)n2)cc1` [compound 718]: the pIC50 in the experiment on H1299 cells (setting [5]) and in the experiment with A549 cells (setting [6]) was under 4.70 each time.
With `Fc1ccc(Nc2ncc(F)c(Nc3ccc(F)c(Cl)c3)n2)cc1Cl` [compound 719], the pIC50 with H1299 cells (setting [5]) and with A549 cells (setting [6]) was under 4.70 each time.
For the compound `Fc1ccc(Nc2ncc(F)c(Nc3ccc(F)cc3)n2)cc1` [compound 720], the negative logarithm of the IC50 (pIC50) was under 4.70 in the experiment with H1299 cells (setting [5]) and at least 4.70 in the experiment on A549 cells (setting [6]).
As to `Cc1ccc(Nc2ncc(F)c(Nc3ccc(C)cc3)n2)cc1` [compound 721], the pIC50 in the experiment with H1299 cells (setting [5]) and in the experiment on A549 cells (setting [6]) was under 4.70 in each case.
In the case of `COC(=O)COc1cccc(Nc2ncc(F)c(Nc3cccc(OCC(=O)OC)c3)n2)c1` [compound 724], the values for the pIC50 in the experiment on H1299 cells (setting [5]) and in the experiment with A549 cells (setting [6]) were at least 4.70 and under 4.70, respectively.
Regarding `CNC(=O)COc1cc(Nc2ncc(F)c(Nc3ccc(C)c(OCC(=O)NC)c3)n2)ccc1C` [compound 759], the pIC50 with H1299 cells (setting [5]) and with A549 cells (setting [6]) was at least 4.70 in each case.
For `COc1cc(Nc2nc(Nc3cccc(O)c3)ncc2F)cc(OC)c1` [compound 768], the negative-log IC50 (pIC50) in the experiment with H1299 cells (setting [5]) and with A549 cells (setting [6]) was at least 4.70 in each case.
For the compound `CCOC(=O)COc1cccc(Nc2nc(Nc3cc(OC)cc(OC)c3)ncc2F)c1` [compound 769], the negative-log IC50 (pIC50) in the experiment with H1299 cells (setting [5]) and with A549 cells (setting [6]) was under 4.70 each time.
`CCOc1ccc(Nc2nc(Nc3cccc(OCC(=O)NC)c3)ncc2F)cc1` [compound 772]: the pIC50 in the experiment on H1299 cells (setting [5]) and in the experiment on A549 cells (setting [6]) was at least 4.70 in each case.
Take `Oc1cccc(Nc2nc(Nc3ccc(OC(F)(F)F)c(Cl)c3)ncc2F)c1` [compound 781]: the pIC50 with H1299 cells (setting [5]) and in the experiment with A549 cells (setting [6]) was at least 4.70 each time.
On to `C=CCNC(=O)COc1cccc(Nc2nc(Nc3cccc(OCC(=O)NC)c3)ncc2F)c1` [compound 791], for which the pIC50 in the experiment on H1299 cells (setting [5]) and with A549 cells (setting [6]) was at least 4.70 each time.
With `CNC(=O)COc1cc(O)cc(Nc2ncc(F)c(Nc3cccc(O)c3)n2)c1` [compound 797], the results for the pIC50 with H1299 cells (setting [5]) and in the experiment on A549 cells (setting [6]) were under 4.70 and at least 4.70, respectively.
As to `CNC(=O)COc1cc(Nc2ncc(F)c(Nc3cccc(O)c3)n2)cc(OCC(=O)NC)c1` [compound 798], the negative-log IC50 (pIC50) in the experiment on H1299 cells (setting [5]) and in the experiment on A549 cells (setting [6]) was under 4.70 in each case.
Take `COc1ccc(Nc2ncc(F)c(Nc3ccc(OC)c(Cl)c3)n2)cc1Cl` [compound 800]: the figures for the pIC50 in the experiment on H1299 cells (setting [5]) and in the experiment with A549 cells (setting [6]) were under 4.70 and at least 4.70, respectively.
Regarding `COc1ccc(Nc2nc(Nc3cc(C)c(OC)c(Cl)c3)ncc2F)cc1Cl` [compound 802], the pIC50 in the experiment on H1299 cells (setting [5]) and with A549 cells (setting [6]) was under 4.70 throughout.
Turning to `COc1cc(Nc2ncc(F)c(Nc3ccc(N4CCOCC4)c(Cl)c3)n2)cc(C(F)(F)F)c1` [compound 806], the pIC50 with H1299 cells (setting [5]) and in the experiment with A549 cells (setting [6]) was at least 4.70 each time.
On to `COc1ccc(Nc2nc(Nc3cc(Cl)cc(Cl)c3)ncc2F)cc1Cl` [compound 808], for which the pIC50 in the experiment with H1299 cells (setting [5]) and with A549 cells (setting [6]) was at least 4.70 each time.

The pIC50 is −log10 of the IC50, conventionally taken in molar units. Higher therefore signals a low IC50.
